Results from US20070093520A1, “Method of treatment of diarrhea-predominant irritable bowel syndrome in a subject” (priority 2005, published 2007).

Tested on: diarrhea-predominant IBS subjects
Assay: 3007 Study: 12-lead ECG abnormalities
Assay type: in vivo, human
Conditions: Study 3007
Method: Resting 12-lead ECGs were performed at Day 1 (Visit 5 of the core protocol), Months 1, 6, and 12 (end of study or early termination visit). A centralized ECG service was used to evaluate all ECG tracings to supply consistent standardized ECG interpretation.
All analyses and summaries for ECG assessments were based on the evaluation performed in the central ECG laboratory.
For Study 3007, “baseline’ was defined as the pre-treatment period of core Study 3006 for subjects randomized to the cilansetron treatment group in Study 3006 and as the last post-Baseline visit of Study 3006 (normally Visit 5) for subjects randomized to the placebo group in Study 3006. The by-timepoint analyses were based on timepoints defined in Section 5.7.1.2.
Summary statistics are presented for PR, QRS, QT, and QTc intervals (Bazett and Fridericia formulas) and heart rate at each visit and at Endpoint, as well as for change from Baseline results at each post-Baseline visit and at Endpoint. Bazett's and Fridericia's QTc intervals were calculated based on the following formulas: Bazett: QTc intervals=QT/√RR Fridericia: QTc intervals=QT/^3√RR
Markedly abnormal ECG parameter values collected after the first dose of study medication and within 30 days of the last dose of study medication were summarized overall. The following criteria were applied to identify markedly abnormal parameter values: • PR ≧0.210 sec; • QRS ≧0.120 sec; • QTc >0.440 sec;
Heart rate ≧120 bpm or ≦50 bpm or change of ≧15 bpm.
The determination of markedly abnormal for QTc was carried out separately for both the Bazett correction and the Fridericia correction.
The incidence of treatment-emergent ECG abnormalities is presented overall and by type of abnormality. A treatment-emergent ECG abnormality was an abnormality identified by the ECG core laboratory that was not present at baseline (e.g., prior to the entry into core Study 3006), and was observed on or after initiation of study medication and up to 30 days after discontinuation of study medication. The incidence of treatment-emergent ECG abnormalities is presented by time interval, as well as overall for the entire treatment period. The incidence of treatment-emergent abnormalities is also presented in more general categories (e.g., presenting incidence of treatment-emergent myocardial infarction overall as well as by location), depending on whether it mitigates the interpretation.
The overall incidence of marked abnormalities for ECG parameters is presented overall by gender and overall.

For `Cc1nccn1C[C@H]1CCc2c(c3cccc4c3n2CCC4)C1=O` [cilansetron, (R)-(−)-4,5,6,8,9,10-hexahydro-10-[(2-methyl-1H-imidazol-1-yl)methyl]-11H-pyrido-[3,2,1-jk]-carbazol-11-one], the “marked ECG abnormality: decreased heart rate” value (female subjects) was 6%, the “marked ECG abnormality: prolonged QTc(B)” value (female subjects) was 23% and the “marked ECG abnormality: prolonged QTc(F)” value (female subjects) was 10%. The “treatment-emergent ECG abnormality: early repolarization-normal variant” value (female subjects) was 2%, the “treatment-emergent ECG abnormality: poor R-wave progression” value (female subjects) was 13% and the “treatment-emergent ECG abnormality: sinus arrhythmia” value (female subjects) was 19%. The “marked ECG abnormality: decreased heart rate” value (male subjects) was 13%, the “marked ECG abnormality: prolonged QTc(B)” value (male subjects) was 6% and the “marked ECG abnormality: prolonged QTc(F)” value (male subjects) was 3%. For the same compound, the “treatment-emergent ECG abnormality: early repolarization-normal variant” value (male subjects) was 19%, the “treatment-emergent ECG abnormality: poor R-wave progression” value (male subjects) was 6% and the “treatment-emergent ECG abnormality: sinus arrhythmia” value (male subjects) was 25%. For the same compound, the “incidence of prolonged QT interval” value (overall) was 4%, the “marked ECG abnormality: heart rate decrease” value (overall) was 14% and the “marked ECG abnormality: heart rate increase” value (overall) was 15%. For the same compound, the “marked ECG abnormality: prolonged QTc(B)” value (overall) was 17%, the “subjects with a post-Baseline marked ECG abnormality” value (overall) was 50% and the “subjects with a treatment-emergent ECG abnormality” value (overall) was 62%. The “treatment-emergent ECG abnormality: borderline LA enlargement” value (overall) was 6%, the “treatment-emergent ECG abnormality: early R-wave transition” value (overall) was 6% and the “treatment-emergent ECG abnormality: early repolarization-normal variant” value (overall) was 8%. For the same compound, the “treatment-emergent ECG abnormality: non-specific T-wave changes” value (overall) was 7%, the “treatment-emergent ECG abnormality: poor R-wave progression” value (overall) was 11% and the “treatment-emergent ECG abnormality: sinus arrhythmia” value (overall) was 21%. For the same compound, the “treatment-emergent ECG abnormality: sinus bradycardia” value (overall) was 10%.
